From patent US20260210856A1, “CONJUGATED OLIGOELECTROLYTES WITH BORON-DIPYRROMETHENE CORES AND METHODS THEREOF” (National University of Singapore, priority 2022, published 2026)

Tests used:
[1] = commercial dyes for comparison; cited from earlier work
A549 cells = assay: Two-photon fluorescence imaging and FLIM of stained cells; type: cell-based; settings: A549, 1 μM, 24 hours
Excerpt: Fluorescence imaging is usually based on the analysis of fluorescence intensity, which is affected by many factors including dye concentration, laser power, the sensitivity of the detector, and sampling time. The main advantage of fluorescence lifetime imaging (FLIM) is independent of the above experimental conditions, especially the local dye concentration gradients, which makes FLIM an ideal method for studies in living cell models. […] The fluorescence lifetime of COE-BYs could be a function of viscosity after calibration. FLIM makes it possible to produce spatial viscosity maps after staining with COE-BYs. A549 cells were stained with COE-BYPhMe and COE-S6 (1 μM) for 24 hours, respectively. The cell samples were analyzed using two-photon fluorescence imaging and FLIM.

[2] = Photophysical properties in PBS and in SUVs (POPC:POPG 85:15); type: physicochemical; settings: for FWHM: fluorescence spectra, intercalated within SUVs; for fluorescence intensity increase upon inserting into lipid bilayers: relative to the values measured in PBS
Excerpt: The photophysical properties of the COE-BY series were studied in phosphate-buffered saline (PBS) and within model lipid bilayers. Small unilamellar vesicles (SUVs) composed of 1-palmitoyl-2-oleoyl-glycero-3-phosphocholine (POPC) and 1-palmitoyl-2-oleoyl-sn-glycero-3-phospho-(1′-rac-glycerol) sodium (POPG) (85:15, mol/mol) were used to simulate the lipid environment in cell membranes. The absorption spectra in PBS for all compounds feature a main peak at ~550 nm, reflecting the presence of the BODIPY subunit (FIG. 9A). One also observes a 5-10 nm red-shift of lowest energy absorption peak with increasing electron-withdrawing strength of the phenyl substituents.
Upon inserting into lipid bilayers, the fluorescence intensity increases over 27-fold for COE-BYPhMe, 30-fold for COE-BYPhOC4, 35-fold for COE-BYPhCN and 40-fold for COE-BYPhNO, relative to the values measured in PBS (FIG. 1c and FIG. S5). The increase in emission intensity reflects a transition to a more rigid and hydrophobic environment. Quantum yields increase to 32% for COE-BYPhMe, 60% for COE-BYPhOC4, 13% for COE-BYPhCN, and 10% for COE-BYPhNO in SUVs from 1% for COE-BYPhMe, 3% for COE-BYPhOC4, and 0.5% for COE-BYPhCN in PBS. The QY of COE-BYPhNO in PBS cannot be accurately determined by using a conventional fluorometer due to its weak fluorescence. The maximum emission wavelengths are redshifted from 587/589 nm (COE-BYPhMe/OC4) to 605/611 nm (COE-BYPhCN/NO) as a result of the decreased HOMO-LUMO energy gaps. […] Furthermore, the fluorescence spectra of COE-BYs intercalated within SUVs show a narrow band at wavelengths between 587 nm and 611 nm, with a full width half maximum (FWHM) linewidth of 52-68 nm (Table 1).

Structure (SMILES) | two photon absorption cross section area [1] | lifetimes in phasor plot (A549 cells) | FWHM [2] | ΦF in PBS ([2]; in PBS) | λabs ([2]; in PBS) | λem in PBS ([2]; in PBS) | ΦF in SUVs [2] | λem in SUVs [2] | fluorescence intensity increase upon inserting into lipid bilayers [2]
CCN(CC)c1ccc2c(-c3ccccc3C(=O)O)c3ccc(=[N+](CC)CC)cc-3oc2c1.[Cl-] [Rhodamine B] | 150 GM | – | – | – | – | – | – | – | –
CCCCCCCCCCCCCCCCCCN1/C(=C/C=C/C2=[N+](CCCCCCCCCCCCCCCCCC)c3ccccc3C2(C)C)C(C)(C)c2ccccc21.[O-][Cl+3]([O-])([O-])[O-] [DiL, carbocyanine DiL] | 10 GM | – | – | – | – | – | – | – | –
C[N+](C)(C)CCCCCCOc1cc(/C=C/c2ccc(/C=C/c3ccc(/C=C/c4ccc(/C=C/c5ccc(/C=C/c6cc(OCCCCCC[N+](C)(C)C)c(OCCCCCC[N+](C)(C)C)c(OCCCCCC[N+](C)(C)C)c6)cc5)cc4)cc3)cc2)cc(OCCCCCC[N+](C)(C)C)c1OCCCCCC[N+](C)(C)C.[I-].[I-].[I-].[I-].[I-].[I-] [COE-S6] | – | only single area in the phasor plot | – | – | – | – | – | – | –
CC1=C(c2ccc(/C=C/c3cc(OCCCCCC[N+](C)(C)C)c(OCCCCCC[N+](C)(C)C)c(OCCCCCC[N+](C)(C)C)c3)cc2)C(C)=[N+]2C1=C(c1ccc(C#N)cc1)c1c(C)c(-c3ccc(/C=C/c4cc(OCCCCCC[N+](C)(C)C)c(OCCCCCC[N+](C)(C)C)c(OCCCCCC[N+](C)(C)C)c4)cc3)c(C)n1[B-]2(F)F.[I-].[I-].[I-].[I-].[I-].[I-] [COE-BYPhCN] | – | – | 63 nm | 0.5% | 550 nm | 618 nm | 13% | 605 nm | > 35 fold
CC1=C(c2ccc(/C=C/c3cc(OCCCCCC[N+](C)(C)C)c(OCCCCCC[N+](C)(C)C)c(OCCCCCC[N+](C)(C)C)c3)cc2)C(C)=[N+]2C1=C(c1ccc([N+](=O)[O-])cc1)c1c(C)c(-c3ccc(/C=C/c4cc(OCCCCCC[N+](C)(C)C)c(OCCCCCC[N+](C)(C)C)c(OCCCCCC[N+](C)(C)C)c4)cc3)c(C)n1[B-]2(F)F.[I-].[I-].[I-].[I-].[I-].[I-] [COE-BYPhNO] | – | – | 68 nm | – | 556 nm | 625 nm | 10% | 611 nm | > 40 fold
